Measured values: PubChem BioAssay (NCI)
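Each compound was tested at five concentrations against cells in 96-well plates for 48 hours. GI50 is the concentration that inhibits growth by half. At the TGI there is no net growth.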

What was measured:
Test in all cases: NCI anticancer screen, dose series, 48 h
786-0 renal = system: 786-0 renal
A498 renal = system: A498 renal
A549 NSCLC = system: A549 NSCLC
ACHN renal = system: ACHN renal
BT-549 breast = system: BT-549 breast
CAKI-1 renal = system: CAKI-1 renal
CCRF-CEM leukemia = system: CCRF-CEM leukemia
COLO 205 colon = system: COLO 205 colon
DU-145 prostate = system: DU-145 prostate
EKVX NSCLC = system: EKVX NSCLC
HCC-2998 colon = system: HCC-2998 colon
HCT-116 colon = system: HCT-116 colon
HCT-15 colon = system: HCT-15 colon
HL-60(TB) leukemia = system: HL-60(TB) leukemia
HOP-62 NSCLC = system: HOP-62 NSCLC
HOP-92 NSCLC = system: HOP-92 NSCLC
HS 578T breast = system: HS 578T breast
HT29 colon = system: HT29 colon
IGROV1 ovarian = system: IGROV1 ovarian
K-562 leukemia = system: K-562 leukemia
KM12 colon = system: KM12 colon
LOX IMVI melanoma = system: LOX IMVI melanoma
M14 melanoma = system: M14 melanoma
MALME-3M melanoma = system: MALME-3M melanoma
MCF7 breast = system: MCF7 breast
MDA-MB-231 breast = system: MDA-MB-231 breast
MDA-MB-435 = system: MDA-MB-435
MOLT-4 leukemia = system: MOLT-4 leukemia
NCI-H226 lung = system: NCI-H226 lung
NCI-H23 lung = system: NCI-H23 lung
NCI-H460 lung = system: NCI-H460 lung
NCI-H522 lung = system: NCI-H522 lung
NCI/ADR-RES ovarian = system: NCI/ADR-RES ovarian
OVCAR-3 ovarian = system: OVCAR-3 ovarian
OVCAR-4 ovarian = system: OVCAR-4 ovarian
OVCAR-5 ovarian = system: OVCAR-5 ovarian
OVCAR-8 ovarian = system: OVCAR-8 ovarian
PC-3 prostate = system: PC-3 prostate
RPMI-8226 leukemia = system: RPMI-8226 leukemia
RXF 393 renal = system: RXF 393 renal
SF-268 CNS = system: SF-268 CNS
SF-295 CNS = system: SF-295 CNS
SF-539 CNS = system: SF-539 CNS
SK-MEL-2 melanoma = system: SK-MEL-2 melanoma
SK-MEL-28 melanoma = system: SK-MEL-28 melanoma
SK-MEL-5 melanoma = system: SK-MEL-5 melanoma
SK-OV-3 ovarian = system: SK-OV-3 ovarian
SN12C renal = system: SN12C renal
SNB-19 CNS = system: SNB-19 CNS
SNB-75 CNS = system: SNB-75 CNS
SW-620 colon = system: SW-620 colon
T-47D breast = system: T-47D breast
TK-10 renal = system: TK-10 renal
U251 CNS = system: U251 CNS
UACC-257 melanoma = system: UACC-257 melanoma
UACC-62 melanoma = system: UACC-62 melanoma
UO-31 renal = system: UO-31 renal

Structure (SMILES): CC(C)(C)CC(C)(C)c1ccc(OCCSC(=N)N)cc1
- GI50 (786-0 renal): 1510 nM
- TGI (786-0 renal): 3090 nM
- GI50 (A498 renal): 2340 nM
- TGI (A498 renal): 11500 nM
- GI50 (A549 NSCLC): 1910 nM
- TGI (A549 NSCLC): 4430 nM
- GI50 (ACHN renal): 1640 nM
- TGI (ACHN renal): 3270 nM
- GI50 (BT-549 breast): 2020 nM
- TGI (BT-549 breast): 4800 nM
- GI50 (CAKI-1 renal): 3130 nM
- TGI (CAKI-1 renal): 13600 nM
- GI50 (CCRF-CEM leukemia): 1990 nM
- TGI (CCRF-CEM leukemia): 5320 nM
- GI50 (COLO 205 colon): 564 nM
- TGI (COLO 205 colon): 2010 nM
- GI50 (DU-145 prostate): 1740 nM
- TGI (DU-145 prostate): 3220 nM
- GI50 (EKVX NSCLC): 1410 nM
- TGI (EKVX NSCLC): 2980 nM
- GI50 (HCC-2998 colon): 610 nM
- TGI (HCC-2998 colon): 1880 nM
- GI50 (HCT-116 colon): 1380 nM
- TGI (HCT-116 colon): 2850 nM
- GI50 (HCT-15 colon): 1060 nM
- TGI (HCT-15 colon): 2380 nM
- GI50 (HL-60(TB) leukemia): 1600 nM
- TGI (HL-60(TB) leukemia): 3520 nM
- GI50 (HOP-62 NSCLC): 2150 nM
- TGI (HOP-62 NSCLC): 4000 nM
- GI50 (HOP-92 NSCLC): 1140 nM
- TGI (HOP-92 NSCLC): 2570 nM
- GI50 (HS 578T breast): 2150 nM
- TGI (HS 578T breast): 5420 nM
- GI50 (HT29 colon): 417 nM
- TGI (HT29 colon): 1850 nM
- GI50 (IGROV1 ovarian): 2310 nM
- TGI (IGROV1 ovarian): 5200 nM
- GI50 (K-562 leukemia): 833 nM
- TGI (K-562 leukemia): 3860 nM
- GI50 (KM12 colon): 1500 nM
- TGI (KM12 colon): 3050 nM
- GI50 (LOX IMVI melanoma): 1480 nM
- TGI (LOX IMVI melanoma): 2920 nM
- GI50 (M14 melanoma): 1680 nM
- TGI (M14 melanoma): 3420 nM
- GI50 (MALME-3M melanoma): 1810 nM
- TGI (MALME-3M melanoma): 3460 nM
- GI50 (MCF7 breast): 1320 nM
- TGI (MCF7 breast): 3000 nM
- GI50 (MDA-MB-231 breast): 1220 nM
- TGI (MDA-MB-231 breast): 2800 nM
- GI50 (MDA-MB-435): 1450 nM
- TGI (MDA-MB-435): 2800 nM
- GI50 (MOLT-4 leukemia): 1700 nM
- TGI (MOLT-4 leukemia): 4800 nM
- GI50 (NCI-H226 lung): 1930 nM
- TGI (NCI-H226 lung): 5830 nM
- GI50 (NCI-H23 lung): 1810 nM
- TGI (NCI-H23 lung): 3680 nM
- GI50 (NCI-H460 lung): 1890 nM
- TGI (NCI-H460 lung): 3870 nM
- GI50 (NCI-H522 lung): 1590 nM
- TGI (NCI-H522 lung): 3450 nM
- GI50 (NCI/ADR-RES ovarian): 1870 nM
- TGI (NCI/ADR-RES ovarian): 3880 nM
- GI50 (OVCAR-3 ovarian): 1470 nM
- TGI (OVCAR-3 ovarian): 2890 nM
- GI50 (OVCAR-4 ovarian): 1430 nM
- TGI (OVCAR-4 ovarian): 2910 nM
- GI50 (OVCAR-5 ovarian): 1880 nM
- TGI (OVCAR-5 ovarian): 3770 nM
- GI50 (OVCAR-8 ovarian): 2080 nM
- TGI (OVCAR-8 ovarian): 5080 nM
- GI50 (PC-3 prostate): 1610 nM
- TGI (PC-3 prostate): 4170 nM
- GI50 (RPMI-8226 leukemia): 1360 nM
- TGI (RPMI-8226 leukemia): 3590 nM
- GI50 (RXF 393 renal): 1180 nM
- TGI (RXF 393 renal): 2580 nM
- GI50 (SF-268 CNS): 2010 nM
- TGI (SF-268 CNS): 4050 nM
- GI50 (SF-295 CNS): 1690 nM
- TGI (SF-295 CNS): 3120 nM
- GI50 (SF-539 CNS): 1750 nM
- TGI (SF-539 CNS): 3350 nM
- GI50 (SK-MEL-2 melanoma): 1960 nM
- TGI (SK-MEL-2 melanoma): 3700 nM
- GI50 (SK-MEL-28 melanoma): 1700 nM
- TGI (SK-MEL-28 melanoma): 3340 nM
- GI50 (SK-MEL-5 melanoma): 1370 nM
- TGI (SK-MEL-5 melanoma): 2680 nM
- GI50 (SK-OV-3 ovarian): 2570 nM
- TGI (SK-OV-3 ovarian): 5540 nM
- GI50 (SN12C renal): 1680 nM
- TGI (SN12C renal): 3210 nM
- GI50 (SNB-19 CNS): 1700 nM
- TGI (SNB-19 CNS): 3450 nM
- GI50 (SNB-75 CNS): 1430 nM
- TGI (SNB-75 CNS): 2790 nM
- GI50 (SW-620 colon): 1450 nM
- TGI (SW-620 colon): 3340 nM
- GI50 (T-47D breast): 1630 nM
- TGI (T-47D breast): 3910 nM
- GI50 (TK-10 renal): 1760 nM
- TGI (TK-10 renal): 3340 nM
- GI50 (U251 CNS): 1570 nM
- TGI (U251 CNS): 3170 nM
- GI50 (UACC-257 melanoma): 1720 nM
- TGI (UACC-257 melanoma): 3450 nM
- GI50 (UACC-62 melanoma): 1720 nM
- TGI (UACC-62 melanoma): 3160 nM
- GI50 (UO-31 renal): 1580 nM
- TGI (UO-31 renal): 3970 nM
